Assay results as given in ChEMBL document CHEMBL1201862, “PubChem BioAssay data set” (2004).
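Five compound concentrations were applied to cells in 96-well plates for 48 hours; endpoints were derived by simple linear interpolation of the resulting dose-response curve. The concentration for 50% growth inhibition is given as GI50.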 Activity calls are given as the source filed them. Cut-off read from the data, not from the text of the source: active = GI50 up to about 1.1 µM and inactive = higher.

What was measured:
Assay in all cases: NCI tumour cell line growth inhibition, 48 h
M19-MEL = tested on: M19-MEL
HOP-18 = tested on: HOP-18
DMS-114 = tested on: DMS-114
DMS-273 = tested on: DMS-273
KM-20L2 = tested on: KM-20L2
SNB-78 = tested on: SNB-78
RXF 631 = tested on: RXF 631
DLD-1 = tested on: DLD-1
LXFL 529 = tested on: LXFL 529

In the case of `CCCSc1nc(COC(=O)NC)c(COC(=O)NC)n1C`, the GI50 (M19-MEL) is reported as > 95.1 µM (inactive), the GI50 (HOP-18) is reported as > 100 µM (inactive) and the GI50 (DMS-114) is reported as 38.7 µM (inactive). The GI50 (DMS-273) was > 95.5 µM (inactive), the GI50 (KM-20L2) was > 100 µM (inactive) and the GI50 (SNB-78) was > 80.5 µM (inactive).
In the case of `CC1(C)C2CCC3(OCCO3)C1C1OC12` (stereo not drawn), the GI50 (RXF 631) is reported as > 100 µM (inactive), the GI50 (HOP-18) is reported as 45.6 µM (inactive) and the GI50 (DMS-273) is reported as > 100 µM (inactive). For the same compound, the GI50 (KM-20L2) was > 100 µM (inactive) and the GI50 (SNB-78) was > 100 µM (inactive).
`COc1ccc(CCC2NCCc3cc(OC)c(OC)cc32)cc1` (stereo not drawn) was tested, and the GI50 (HOP-18) was > 100 µM (inactive), the GI50 (KM-20L2) was > 100 µM (inactive) and the GI50 (SNB-78) was 79.8 µM (inactive). The GI50 (DLD-1) was > 100 µM (inactive) and the GI50 (LXFL 529) was > 100 µM (inactive).
`Cc1ccc(NC(=O)/C(=N\Nc2ccc([N+](=O)[O-])cc2[N+](=O)[O-])C2C(=O)NC(=O)NC2=O)cc1` was tested, and the GI50 (M19-MEL) was > 100 µM (inactive), the GI50 (RXF 631) was > 100 µM (inactive) and the GI50 (HOP-18) was > 100 µM (inactive). The GI50 (DMS-114) was 49.2 µM (inactive), the GI50 (KM-20L2) was 15.4 µM (inactive) and the GI50 (SNB-78) was > 100 µM (inactive). For the same compound, the GI50 (DLD-1) was 21.1 µM (inactive) and the GI50 (LXFL 529) was 13.3 µM (inactive).
In the case of `N#CN=C(N(Cc1ccccc1)Cc1ccccc1)N(Cc1ccccc1)Cc1ccccc1`, the GI50 (M19-MEL) is reported as 25.5 µM (inactive), the GI50 (HOP-18) is reported as > 100 µM (inactive) and the GI50 (DMS-114) is reported as 4.85 µM (inactive). The GI50 (KM-20L2) was 16.4 µM (inactive), the GI50 (SNB-78) was > 100 µM (inactive) and the GI50 (DLD-1) was 5.18 µM (inactive). For the same compound, the GI50 (LXFL 529) was 3.89 µM (inactive).
With `O=C1/C(=C/c2ccccc2)CN(C(=O)C(Cl)(Cl)Cl)C/C1=C\c1ccccc1` the GI50 (M19-MEL) was 1.33 µM (inactive), the GI50 (HOP-18) was 2.96 µM (inactive) and the GI50 (DMS-114) was 1.6 µM (inactive). The GI50 (DMS-273) was 1.06 µM (active), the GI50 (KM-20L2) was 2.16 µM (inactive) and the GI50 (SNB-78) was 2.72 µM (inactive). The GI50 (DLD-1) was 1.96 µM (inactive) and the GI50 (LXFL 529) was 1.59 µM (inactive).
In the case of `Cc1ccc(-c2nnc3s/c(=C\c4ccc(N(C)C)cc4)c(=O)n23)cc1`, the GI50 (M19-MEL) is reported as > 100 µM (inactive), the GI50 (RXF 631) is reported as > 100 µM (inactive) and the GI50 (HOP-18) is reported as > 100 µM (inactive). For the same compound, the GI50 (DMS-114) was > 100 µM (inactive), the GI50 (DMS-273) was > 100 µM (inactive) and the GI50 (KM-20L2) was > 100 µM (inactive). The GI50 (SNB-78) was > 100 µM (inactive), the GI50 (DLD-1) was > 100 µM (inactive) and the GI50 (LXFL 529) was > 100 µM (inactive).
In the case of `O=S(=O)(N/N=C/c1c(Cl)cccc1Cl)c1ccccc1`, the GI50 (M19-MEL) is reported as > 100 µM (inactive), the GI50 (RXF 631) is reported as > 100 µM (inactive) and the GI50 (HOP-18) is reported as > 100 µM (inactive). For the same compound, the GI50 (DMS-114) was > 100 µM (inactive), the GI50 (DMS-273) was > 100 µM (inactive) and the GI50 (KM-20L2) was > 100 µM (inactive). For the same compound, the GI50 (SNB-78) was > 100 µM (inactive), the GI50 (DLD-1) was > 100 µM (inactive) and the GI50 (LXFL 529) was > 100 µM (inactive).
For `CC#C[C@@]1(O)CCCC[C@@H]1O`, the GI50 (M19-MEL) was > 100 µM (inactive), the GI50 (RXF 631) was > 100 µM (inactive) and the GI50 (HOP-18) was > 100 µM (inactive). The GI50 (DMS-114) was > 100 µM (inactive), the GI50 (DMS-273) was > 100 µM (inactive) and the GI50 (KM-20L2) was > 100 µM (inactive). The GI50 (SNB-78) was > 100 µM (inactive).
For `O=C(c1cccs1)N(C(=S)N1CCN(c2ccccc2)CC1)c1ccccc1`, the GI50 (M19-MEL) was > 100 µM (inactive), the GI50 (HOP-18) was > 100 µM (inactive) and the GI50 (DMS-114) was > 100 µM (inactive). The GI50 (DMS-273) was > 100 µM (inactive), the GI50 (KM-20L2) was > 100 µM (inactive) and the GI50 (SNB-78) was > 100 µM (inactive). The GI50 (DLD-1) was > 100 µM (inactive) and the GI50 (LXFL 529) was > 100 µM (inactive).
With `Cc1ccc(S(=O)(=O)OC(COC(=O)c2ccccc2)C(OS(=O)(=O)c2ccc(C)cc2)C(OS(=O)(=O)c2ccc(C)cc2)C(COC(=O)c2ccccc2)OS(=O)(=O)c2ccc(C)cc2)cc1` (stereo not drawn) the GI50 (M19-MEL) was > 100 µM (inactive), the GI50 (DMS-273) was > 100 µM (inactive) and the GI50 (KM-20L2) was > 100 µM (inactive). The GI50 (SNB-78) was > 100 µM (inactive) and the GI50 (LXFL 529) was > 100 µM (inactive).
`CC1(C)OCC[C@@H]1[Si](C)(C)C` was tested, and the GI50 (M19-MEL) was > 100 µM (inactive), the GI50 (RXF 631) was > 100 µM (inactive) and the GI50 (HOP-18) was 23.1 µM (inactive). The GI50 (DMS-114) was 49.2 µM (inactive), the GI50 (DMS-273) was 78.3 µM (inactive) and the GI50 (KM-20L2) was > 100 µM (inactive). The GI50 (SNB-78) was > 100 µM (inactive) and the GI50 (LXFL 529) was > 100 µM (inactive).
With `CC(=O)c1cccc(NC(=O)C(=O)C(C(=O)c2ccccc2F)C2OC(=O)c3ccccc32)c1` (stereo not drawn) the GI50 (M19-MEL) was 23.1 µM (inactive), the GI50 (RXF 631) was 21.1 µM (inactive) and the GI50 (DMS-114) was 31 µM (inactive). The GI50 (DMS-273) was 34 µM (inactive), the GI50 (KM-20L2) was 40.2 µM (inactive) and the GI50 (SNB-78) was 12.5 µM (inactive). The GI50 (DLD-1) was 45.8 µM (inactive) and the GI50 (LXFL 529) was 44 µM (inactive).
`CN(/N=C/c1cccc2cccnc12)c1ccc([N+](=O)[O-])cc1[N+](=O)[O-]` was tested, and the GI50 (M19-MEL) was > 78 µM (inactive), the GI50 (RXF 631) was 36.1 µM (inactive) and the GI50 (HOP-18) was > 100 µM (inactive). The GI50 (DMS-114) was 20.2 µM (inactive), the GI50 (DMS-273) was 34.4 µM (inactive) and the GI50 (KM-20L2) was > 100 µM (inactive). The GI50 (SNB-78) was 18.4 µM (inactive), the GI50 (DLD-1) was 44.7 µM (inactive) and the GI50 (LXFL 529) was > 100 µM (inactive).
In the case of `C/C(=C/c1c(C)[nH]c(=O)[nH]c1=O)C(=O)O`, the GI50 (M19-MEL) is reported as > 1370 µM (inactive), the GI50 (HOP-18) is reported as > 1370 µM (inactive) and the GI50 (DMS-114) is reported as > 1370 µM (inactive). For the same compound, the GI50 (DMS-273) was > 1370 µM (inactive), the GI50 (KM-20L2) was > 1370 µM (inactive) and the GI50 (SNB-78) was > 1370 µM (inactive). For the same compound, the GI50 (DLD-1) was > 1370 µM (inactive).
With `Cc1cccc(C)c1NC(=O)C(=O)C1C(=O)N(c2ccccc2)N=C1N` (stereo not drawn) the GI50 (M19-MEL) was > 100 µM (inactive), the GI50 (HOP-18) was > 100 µM (inactive) and the GI50 (DMS-114) was > 100 µM (inactive). The GI50 (DMS-273) was > 100 µM (inactive), the GI50 (KM-20L2) was > 100 µM (inactive) and the GI50 (SNB-78) was > 100 µM (inactive). For the same compound, the GI50 (DLD-1) was > 100 µM (inactive) and the GI50 (LXFL 529) was > 100 µM (inactive).
In the case of `O=C1C=C(Br)c2c(-c3ccccc3)oc3cccc1c23`, the GI50 (M19-MEL) is reported as > 60.1 µM (inactive), the GI50 (RXF 631) is reported as 46.8 µM (inactive) and the GI50 (HOP-18) is reported as > 100 µM (inactive). For the same compound, the GI50 (DMS-114) was 24.8 µM (inactive), the GI50 (DMS-273) was > 42.9 µM (inactive) and the GI50 (KM-20L2) was > 100 µM (inactive). For the same compound, the GI50 (SNB-78) was 35.6 µM (inactive), the GI50 (DLD-1) was > 100 µM (inactive) and the GI50 (LXFL 529) was > 65.2 µM (inactive).
With `C[C@@H]1O[C@]2(O)[C@@H]3CCCN3S(=O)(=O)CCN2C1=O` the GI50 (M19-MEL) was > 100 µM (inactive), the GI50 (RXF 631) was > 100 µM (inactive) and the GI50 (HOP-18) was > 100 µM (inactive). For the same compound, the GI50 (KM-20L2) was > 100 µM (inactive), the GI50 (SNB-78) was > 100 µM (inactive) and the GI50 (DLD-1) was > 100 µM (inactive). The GI50 (LXFL 529) was > 100 µM (inactive).
For `COc1ccc(NC(=O)C(=O)NO)c(OC)c1`, the GI50 (M19-MEL) was 21.9 µM (inactive), the GI50 (RXF 631) was 18.6 µM (inactive) and the GI50 (HOP-18) was 17.3 µM (inactive). For the same compound, the GI50 (DMS-114) was 15.5 µM (inactive), the GI50 (DMS-273) was 16.6 µM (inactive) and the GI50 (KM-20L2) was 19.1 µM (inactive). The GI50 (SNB-78) was 19.8 µM (inactive), the GI50 (DLD-1) was 21.5 µM (inactive) and the GI50 (LXFL 529) was 16.7 µM (inactive).
`CCOC(=O)c1c(-c2ccccc2)c(C(OC(c2ccccc2)c2c(-c3ccccc3)c(C(=O)OCC)n3ccccc23)c2ccccc2)c2ccccn12` (stereo not drawn) was tested, and the GI50 (HOP-18) was > 100 µM (inactive), the GI50 (DMS-273) was > 100 µM (inactive) and the GI50 (KM-20L2) was > 100 µM (inactive). The GI50 (SNB-78) was > 100 µM (inactive), the GI50 (DLD-1) was > 100 µM (inactive) and the GI50 (LXFL 529) was > 100 µM (inactive).
